Results: the supplement of paper PMC13380429

Key:
[1] = tested on: A549-ACE2 infected with SARS-CoV-2; test: cell count relative to DMSO; higher = less toxic; conditions: 24 h
[2] = tested on: Caco-2; test: cell viability relative to DMSO; higher = less toxic; conditions: 72 h
[3] = tested on: Calu-3; test: as above; conditions: 72 h
[4] = tested on: HepG2; test: as above; conditions: 72 h
[5] = tested on: U2OS; test: as above; conditions: 72 h
[6] = tested on: Vero E6; test: as above; conditions: 72 h
[7] = tested on: A549-ACE2 infected with SARS-CoV-2; test: SARS-CoV-2 infection rate relative to DMSO; higher = more infection; conditions: 24 h
[8] = tested on: A549-ACE2; test: phospholipidosis EC50; higher = less potent phospholipidosis inducer
[9] = tested on: A549-ACE2; test: drug-induced phospholipidosis relative to tamoxifen; higher = more phospholipidosis
[10] = tested on: A549-ACE2 infected with SARS-CoV-2; test: morphology score (similarity to uninfected cells); higher = more like uninfected cells; conditions: 24 h
[11] = tested on: Caco-2; test: relative viability EC50 (midpoint between 100% and the lowest measured viability); higher = less toxic; conditions: 72 h
[12] = tested on: Calu-3; test: as above; conditions: 72 h
[13] = tested on: HepG2; test: as above; conditions: 72 h
[14] = tested on: U2OS; test: as above; conditions: 72 h
[15] = tested on: Vero E6; test: as above; conditions: 72 h
[16] = tested on: Caco-2; test: drug sensitivity score (DSS) for viability; higher = more toxic; extreme values may be limits of the assay; conditions: 72 h
[17] = tested on: Calu-3; test: as above; conditions: 72 h
[18] = tested on: HepG2; test: as above; conditions: 72 h
[19] = tested on: U2OS; test: as above; conditions: 72 h
[20] = tested on: Vero E6; test: as above; conditions: 72 h

CNCc1ccc(C)c(NC(=O)c2ccc(Nc3nc(-c4ccccc4)c4ccccc4n3)cc2)c1
Conditions | SARS-CoV-2 infection rate [%] | cell count [%] | cell viability [%] | morphology score | phospholipidosis EC50 [nM]
[1], 0.1 µM | – | 103 | – | – | –
[1], 0.3 µM | – | 101 | – | – | –
[1], 1 µM | – | 108 | – | – | –
[1], 3 µM | – | 127 | – | – | –
[2], 1 nM | – | – | 93.8 | – | –
[2], 10 nM | – | – | 99.5 | – | –
[2], 100 nM | – | – | 90.1 | – | –
[2], 1000 nM | – | – | 98.3 | – | –
[2], 10000 nM | – | – | 25.4 | – | –
[3], 1 nM | – | – | 96.6 | – | –
[3], 10 nM | – | – | 101 | – | –
[3], 100 nM | – | – | 102 | – | –
[3], 1000 nM | – | – | 92 | – | –
[3], 10000 nM | – | – | 4.1 | – | –
[4], 1 nM | – | – | 107 | – | –
[4], 10 nM | – | – | 104 | – | –
[4], 100 nM | – | – | 105 | – | –
[4], 1000 nM | – | – | 88.3 | – | –
[4], 10000 nM | – | – | 36.8 | – | –
[5], 1 nM | – | – | 100 | – | –
[5], 10 nM | – | – | 101 | – | –
[5], 100 nM | – | – | 103 | – | –
[5], 1000 nM | – | – | 100 | – | –
[5], 10000 nM | – | – | 35.3 | – | –
[6], 1 nM | – | – | 101 | – | –
[6], 10 nM | – | – | 99.6 | – | –
[6], 100 nM | – | – | 100 | – | –
[6], 1000 nM | – | – | 98.2 | – | –
[6], 10000 nM | – | – | 42.1 | – | –
[7], 0.1 µM | 99 | – | – | – | –
[7], 0.3 µM | 86 | – | – | – | –
[7], 1 µM | 89 | – | – | – | –
[7], 3 µM | 24 | – | – | – | –
[8], 24 h | – | – | – | – | 1580
[8], 48 h | – | – | – | – | 1490
[8], 72 h | – | – | – | – | 2070
[10], 0.1 µM | – | – | – | 0.21 | –
[10], 0.3 µM | – | – | – | 0.36 | –
[10], 1 µM | – | – | – | 0.34 | –
[10], 3 µM | – | – | – | 0.88 | –

drug-induced phospholipidosis [%], [9]
Conditions | 0.3 µM | 0.833333 µM | 3.33333 µM | 6.66667 µM | 10 µM | 30 µM
24 h | 5.53 | 23.7 | 77.2 | 98.9 | 84.8 | 99.7
48 h | 5.67 | 17.1 | 89.4 | 102 | 92.4 | –
72 h | 1.97 | 13.2 | 86.2 | 99.1 | 115 | –

Conditions | drug sensitivity score | relative viability EC50 [nM]
[11] | – | 3000
[12] | – | 2480
[13] | – | 1810
[14] | – | 3210
[15] | – | 2940
[16] | 4.3 | –
[17] | 6.6 | –
[18] | 5.4 | –
[19] | 3.5 | –
[20] | 3.4 | –

Cc1cccc(Nc2nc(-c3ccncc3)cs2)c1
Conditions | SARS-CoV-2 infection rate [%] | cell count [%] | cell viability [%] | morphology score | phospholipidosis EC50 [nM]
[1], 0.1 µM | – | 108 | – | – | –
[1], 0.3 µM | – | 107 | – | – | –
[1], 1 µM | – | 110 | – | – | –
[1], 3 µM | – | 106 | – | – | –
[2], 1 nM | – | – | 102 | – | –
[2], 10 nM | – | – | 111 | – | –
[2], 100 nM | – | – | 97.4 | – | –
[2], 1000 nM | – | – | 98 | – | –
[2], 10000 nM | – | – | 85.8 | – | –
[4], 1 nM | – | – | 104 | – | –
[4], 10 nM | – | – | 108 | – | –
[4], 100 nM | – | – | 97.2 | – | –
[4], 1000 nM | – | – | 94.1 | – | –
[4], 10000 nM | – | – | 48.5 | – | –
[5], 1 nM | – | – | 99.2 | – | –
[5], 10 nM | – | – | 98.5 | – | –
[5], 100 nM | – | – | 95.8 | – | –
[5], 1000 nM | – | – | 98.5 | – | –
[5], 10000 nM | – | – | 93.6 | – | –
[6], 1 nM | – | – | 95.5 | – | –
[6], 10 nM | – | – | 111 | – | –
[6], 100 nM | – | – | 99 | – | –
[6], 1000 nM | – | – | 94.9 | – | –
[6], 10000 nM | – | – | 70.6 | – | –
[7], 0.1 µM | 92 | – | – | – | –
[7], 0.3 µM | 91 | – | – | – | –
[7], 1 µM | 83 | – | – | – | –
[7], 3 µM | 50 | – | – | – | –
[8], 24 h | – | – | – | – | 2940
[8], 48 h | – | – | – | – | 2720
[8], 72 h | – | – | – | – | 3300
[10], 0.1 µM | – | – | – | 0.25 | –
[10], 0.3 µM | – | – | – | 0.02 | –
[10], 1 µM | – | – | – | 0.28 | –
[10], 3 µM | – | – | – | 0.31 | –

drug-induced phospholipidosis [%], [9]
Conditions | 0.3 µM | 0.833333 µM | 3.33333 µM | 6.66667 µM | 10 µM | 30 µM
24 h | 2.6 | 8.64 | 73.8 | 102 | 110 | 57.3
48 h | 5.9 | 9.76 | 87.3 | 116 | 123 | 69.6
72 h | 6.14 | 9.12 | 70 | 125 | 120 | –

Conditions | drug sensitivity score | relative viability EC50 [nM]
[11] | – | > 10000
[13] | – | 2220
[14] | – | > 10000
[16] | 0.3 | –
[18] | 3.7 | –
[19] | 0 | –
[20] | 2.1 | –

Cn1cc(C2=C(c3ccc(Cl)cc3Cl)C(=O)NC2=O)c2ccccc21
Conditions | SARS-CoV-2 infection rate [%] | cell count [%] | cell viability [%] | morphology score | phospholipidosis EC50 [nM]
[1], 0.3 µM | – | 96 | – | – | –
[1], 3 µM | – | 94 | – | – | –
[1], 10 µM | – | 96 | – | – | –
[1], 30 µM | – | 91 | – | – | –
[2], 1 nM | – | – | 105 | – | –
[2], 10 nM | – | – | 99.9 | – | –
[2], 100 nM | – | – | 92.5 | – | –
[2], 1000 nM | – | – | 105 | – | –
[2], 10000 nM | – | – | 93.1 | – | –
[3], 1 nM | – | – | 113 | – | –
[3], 10 nM | – | – | 108 | – | –
[3], 100 nM | – | – | 99.5 | – | –
[3], 1000 nM | – | – | 122 | – | –
[3], 10000 nM | – | – | 103 | – | –
[4], 1 nM | – | – | 98.8 | – | –
[4], 10 nM | – | – | 95 | – | –
[4], 100 nM | – | – | 100 | – | –
[4], 1000 nM | – | – | 95.1 | – | –
[4], 10000 nM | – | – | 87.2 | – | –
[5], 1 nM | – | – | 100 | – | –
[5], 10 nM | – | – | 97.9 | – | –
[5], 100 nM | – | – | 97.8 | – | –
[5], 1000 nM | – | – | 100 | – | –
[5], 10000 nM | – | – | 97.8 | – | –
[6], 1 nM | – | – | 99.1 | – | –
[6], 10 nM | – | – | 98 | – | –
[6], 100 nM | – | – | 98.4 | – | –
[6], 1000 nM | – | – | 96.2 | – | –
[6], 10000 nM | – | – | 99.8 | – | –
[7], 0.3 µM | 109 | – | – | – | –
[7], 3 µM | 101 | – | – | – | –
[7], 10 µM | 90 | – | – | – | –
[7], 30 µM | 91 | – | – | – | –
[8], 24 h | – | – | – | – | 6830
[8], 48 h | – | – | – | – | 1870
[8], 72 h | – | – | – | – | 3220
[10], 0.3 µM | – | – | – | -0.36 | –
[10], 3 µM | – | – | – | -0.27 | –
[10], 10 µM | – | – | – | -0.07 | –
[10], 30 µM | – | – | – | -0.09 | –

drug-induced phospholipidosis [%], [9]
Conditions | 0.3 µM | 0.833333 µM | 3.33333 µM | 6.66667 µM | 10 µM | 30 µM
24 h | 3.42 | 26.9 | 57 | 74.1 | 90.2 | 107
48 h | 4.24 | 11.7 | 45.3 | 55.7 | 59.6 | 55.3
72 h | 4.76 | 5.3 | 35.3 | 56 | 56.2 | 54.6

Conditions | drug sensitivity score | relative viability EC50 [nM]
[11] | – | > 10000
[12] | – | > 10000
[13] | – | > 10000
[14] | – | > 10000
[15] | – | > 10000
[16] | 0 | –
[17] | 0 | –
[18] | 0.3 | –
[19] | 0 | –
[20] | 0 | –
